Patent US20210255193A1, “LYSINE REACTIVE PROBES AND USES THEREOF” (The Scripps Research Institute, priority 2017, published 2021)

What was measured:
Experiment in all cases: competitive isoTOP-ABPP
Format in all cases: binding
[1] = target: T1, PTGR1 Prostaglandin reductase 1 (Homo sapiens, UniProt Q14914)
T1 construct: isoTOP-ABPP experiments performed in cell lysates (in vitro); endogenous in cells; host or cells: soluble proteome of human cancer cell lines (MDA-MB-231; Ramos and Jurkat also prepared)
Method in brief: (§1)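 Cell lysate (0.5 ml) was pre-treated with fragment, 50 μM for activated esters or 100 μM for guanidinylating agents, versus DMSO, then labeled 1 h at ambient temperature with 0.1 mM STP-alkyne. Light/heavy TEV tags attached by CuAAC; R = DMSO/compound MS1 peak-area ratio, median per lysine.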

[2] = target: T2, REEP5 Receptor expression-enhancing protein 5 (Homo sapiens, UniProt Q00765)
T2 construct: isoTOP-ABPP experiments performed in cell lysates (in vitro); endogenous in cells; host or cells: soluble proteome of human cancer cell lines (MDA-MB-231, Ramos, Jurkat)
Method in brief: as §1

[3] = target: T3, OAT Ornithine aminotransferase, mitochondrial (Homo sapiens, UniProt P04181); conditions: for isoTOP-ABPP reactivity ratio at lysine P04181_K66: 50 uM, 231 sol, in vitro
T3 construct: isoTOP-ABPP experiments performed in cell lysates (in vitro); endogenous in cells; host or cells: MDA-MB-231 soluble lysate
T3 sequence (P04181 26-439): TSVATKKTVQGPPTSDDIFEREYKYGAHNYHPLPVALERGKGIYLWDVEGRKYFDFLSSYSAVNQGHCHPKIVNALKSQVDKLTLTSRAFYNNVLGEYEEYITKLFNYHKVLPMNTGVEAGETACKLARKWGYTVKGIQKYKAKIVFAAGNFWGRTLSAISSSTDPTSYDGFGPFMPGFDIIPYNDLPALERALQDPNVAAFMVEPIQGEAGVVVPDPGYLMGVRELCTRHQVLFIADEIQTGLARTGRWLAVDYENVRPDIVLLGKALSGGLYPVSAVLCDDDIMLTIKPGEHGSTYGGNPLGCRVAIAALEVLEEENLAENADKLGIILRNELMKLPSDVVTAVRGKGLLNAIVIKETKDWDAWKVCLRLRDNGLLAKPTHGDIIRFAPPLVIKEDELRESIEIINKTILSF
Method in brief: as §1

F3 Tissue factor = target: T4, F3 Tissue factor (Homo sapiens, UniProt P13726); conditions: for isoTOP-ABPP ratio (R) at liganded lysine P13726_K279: 50 uM, in vitro, sol, 231
T4 construct: isoTOP-ABPP experiments performed in cell lysates (in vitro); endogenous in cells; host or cells: soluble proteome of human cancer cell lines (MDA-MB-231; Ramos and Jurkat also prepared)
Method in brief: as §1

T2 sequence (Q00765 whole entry): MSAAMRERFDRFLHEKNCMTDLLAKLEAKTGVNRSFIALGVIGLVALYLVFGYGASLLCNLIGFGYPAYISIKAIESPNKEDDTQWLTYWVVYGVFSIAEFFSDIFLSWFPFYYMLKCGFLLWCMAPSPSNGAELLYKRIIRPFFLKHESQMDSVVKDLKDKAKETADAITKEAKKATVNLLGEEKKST
T4 sequence (P13726 33-295): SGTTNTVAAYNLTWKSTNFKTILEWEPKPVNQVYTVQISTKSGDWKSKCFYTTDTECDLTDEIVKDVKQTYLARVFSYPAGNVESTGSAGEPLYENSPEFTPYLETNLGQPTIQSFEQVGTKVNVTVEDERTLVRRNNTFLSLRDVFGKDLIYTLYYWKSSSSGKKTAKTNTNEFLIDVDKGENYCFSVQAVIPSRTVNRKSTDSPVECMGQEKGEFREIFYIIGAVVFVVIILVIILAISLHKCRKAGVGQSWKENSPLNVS
T1 sequence (Q14914 whole entry): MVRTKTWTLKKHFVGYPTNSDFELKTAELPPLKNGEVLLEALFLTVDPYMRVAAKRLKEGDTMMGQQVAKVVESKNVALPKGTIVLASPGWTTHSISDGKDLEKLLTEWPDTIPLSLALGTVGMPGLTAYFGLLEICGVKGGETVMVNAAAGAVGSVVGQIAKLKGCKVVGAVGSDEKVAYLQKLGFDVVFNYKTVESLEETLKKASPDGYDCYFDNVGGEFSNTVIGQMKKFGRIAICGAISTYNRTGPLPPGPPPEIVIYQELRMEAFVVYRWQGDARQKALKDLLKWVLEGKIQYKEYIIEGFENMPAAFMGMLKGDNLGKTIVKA

## O=C(CCc1coc2cc(F)ccc2c1=O)Oc1ccc([N+](=O)[O-])cc1[N+](=O)[O-] [fragment 36, 2,4-Dinitrophenyl 3-(7-fluoro-4-oxo-4H-chromen-3-yl)propanoate]
[1]; 50 uM, in vitro, sol, 231
  isoTOP-ABPP ratio (R) at liganded lysine Q14914_K194: 1.7

## Cn1cc(CC(=O)Oc2c(F)c(F)c(F)c(F)c2F)c2ccccc21 [fragment 22, Pentafluorophenyl 2-(1-methyl-1H-indol-3-yl)acetate]
[2]; Q00765_K147, 50 uM, 231 sol, in vitro
  R value (DMSO/fragment) for probe 1 labeling: 4.8

## COc1cc(CCC(=O)Oc2ccc([N+](=O)[O-])cc2[N+](=O)[O-])cc(OC)c1OC [fragment 33, 2,4-Dinitrophenyl 3-(3,4,5-trimethoxyphenyl)propanoate]
[3]
  isoTOP-ABPP reactivity ratio at lysine P04181_K66: 1.0

## O=C(Oc1ccc([N+](=O)[O-])cc1[N+](=O)[O-])C(c1ccccc1)c1ccccc1 [fragment 30, 2,4-Dinitrophenyl 2,2-diphenylacetate]
[2]; 50 uM, 231 sol, in vitro
  isoTOP-ABPP reactivity ratio at lysine Q00765_K147: 20.0

## O=C(Oc1ccc([N+](=O)[O-])cc1[N+](=O)[O-])c1cc(C(F)(F)F)cc(C(F)(F)F)c1 [fragment 31, 2,4-Dinitrophenyl 3,5-bis(trifluoromethyl)benzoate]
[2]; 50 uM, 231 sol, in vitro
  isoTOP-ABPP reactivity ratio at lysine Q00765_K147: 3.0

## CC(=O)Oc1ccc([N+](=O)[O-])cc1[N+](=O)[O-] [fragment 43, 2,4-Dinitrophenyl acetate]
F3 Tissue factor
  isoTOP-ABPP ratio (R) at liganded lysine P13726_K279: 1.1

## CC(C)(C)OC(=O)N=C(NC(=O)OC(C)(C)C)n1cccn1 [fragment 50, reference compound]
[1]; 100 uM_231_sol_in vitro
  isoTOP-ABPP ratio, lysine Q14914_K194: 1.2
F3 Tissue factor; 100 uM_231_sol_in vitro
  isoTOP-ABPP ratio, lysine P13726_K279: 1.0
[3]; 100 uM_231_sol_in vitro
  isoTOP-ABPP ratio, lysine P04181_K66: 9.9

## N#Cc1ccc(C(=O)Oc2ccc([N+](=O)[O-])cc2[N+](=O)[O-])cc1 [fragment 44, 2,4-Dinitrophenyl 4-cyanobenzoate]
F3 Tissue factor; 50 uM_231_sol_in vitro
  isoTOP-ABPP ratio, lysine P13726_K279: 1.1

## O=C(CCc1ccc2c(c1)OCO2)Oc1ccc([N+](=O)[O-])cc1[N+](=O)[O-] [fragment 45, 2,4-Dinitrophenyl 3-(benzo[d][1,3]dioxol-5-yl)propanoate]
[1]; 50 uM_231_sol_in vitro
  isoTOP-ABPP ratio, lysine Q14914_K194: 5.5
[2]; 50 uM_231_sol_in vitro
  isoTOP-ABPP ratio, lysine Q00765_K147: 2.7
F3 Tissue factor; 50 uM_231_sol_in vitro
  isoTOP-ABPP ratio, lysine P13726_K279: 4.2

## COC(=O)NC(=NC(=O)OCC1c2ccccc2-c2ccccc21)n1cccn1 [fragment 49, N-Methoxycarbonyl-N′-9-fluorenylmethoxycarbonyl-pyrazole-1-carboxamidine]
[1]; 100 uM_231_sol_in vitro
  isoTOP-ABPP ratio, lysine Q14914_K194: 1.3

## O=C(Oc1c(F)c(F)c(F)c(F)c1F)C(c1ccccc1)c1ccccc1 [fragment 20, Pentafluorophenyl 2,2-diphenylacetate]
[1]; Q14914_K194, 50 uM, 231 sol, in vitro
  R value (DMSO/fragment) for probe 1 labeling: 1.6

## O=C(Oc1c(F)c(F)c(F)c(F)c1F)C1CCN(C(=O)OCc2ccccc2)CC1 [fragment 24, 1-Benzyl 4-(pentafluorophenyl) piperidine-1,4-dicarboxylate]
[3]
  isoTOP-ABPP reactivity ratio at lysine P04181_K66: 0.6

## Cn1cc(CC(=O)Oc2ccc([N+](=O)[O-])cc2[N+](=O)[O-])c2ccccc21 [fragment 32, 2,4-Dinitrophenyl 2-(1-methyl-1H-indol-3-yl)acetate]
[3]
  isoTOP-ABPP reactivity ratio at lysine P04181_K66: 9.3

## O=C(Oc1ccc([N+](=O)[O-])cc1[N+](=O)[O-])c1ccc(Oc2ccccc2)cc1 [fragment 39, 2,4-Dinitrophenyl 4-phenoxybenzoate]
[2]; 50 uM, in vitro, sol, 231
  isoTOP-ABPP ratio (R) at liganded lysine Q00765_K147: 1.2
F3 Tissue factor
  isoTOP-ABPP ratio (R) at liganded lysine P13726_K279: 1.8
